Data published in patent US20130289019A1, “METHODS OF TREATING BEHAVIORIAL AND/OR MENTAL DISORDERS” (AMAZING GRACE, INC., priority 2012, published 2013).
Entries after “also recorded” stand apart in the source; their conditions may differ.

Columns and labels:
Format in all cases: in vivo, rat
[1] = system: ACh outflow in the NAcShell and swimming of rats; assay: local fluoxetine infusion in NAcShell: ACh outflow and swim test
rats (NAcShell infusion) = assay: locomotor activity in the open field after bilateral fluoxetine infusion into NAcShell
rats (NAc infusion) = assay: swim test scores during bilateral fluoxetine infusion in the NAc
[2] = system: rats (basal extracellular ACh in the NAcShell, swim test); assay: chronic systemic fluoxetine: basal extracellular ACh in NAcShell and swim test
[3] = 0.2 mM bilateral in NAc, fluoxetine on Day 2 (Ringer Day 3)
[4] = 0.2 mM bilateral in NAc, fluoxetine on Day 3 (Ringer Day 2)
[5] = 0.2 mM bilateral in NAc, on Day 2 or Day 3 (combined)
[6] = 0.5 mM bilateral in NAc, fluoxetine on Day 2 (Ringer Day 3)
[7] = 0.5 mM bilateral in NAc, fluoxetine on Day 3 (Ringer Day 2)
[8] = 0.5 mM bilateral in NAc, on Day 2 or Day 3 (combined)
[9] = 0.75 mM bilateral in NAc, fluoxetine on Day 2 (Ringer Day 3)
[10] = 0.75 mM bilateral in NAc, fluoxetine on Day 3 (Ringer Day 2)
[11] = 0.75 mM bilateral in NAc, on Day 2 or Day 3 (combined)

CNCCC(Oc1ccc(C(F)(F)F)cc1)c1ccccc1 (centres unmarked) [Fluoxetine]
swimming time greater than during Ringer ([1]; 1.0 mM local infusion in NAcShell, n=8): 18.9% | swimming time during fluoxetine ([1]; 1.0 mM local infusion in NAcShell, n=8, Ringer 277±44 sec): 329 ± 45 s | ACh outflow in the NAcShell, effect in words ([1]; during and following 1.0 mM fluoxetine infusion, vs Ringer infusion or pretest): substantially lower; also recorded: decreases the extracellular level of ACh | immobility in the swim test, effect in words ([1]; unilateral infusion into NAcShell): decreases immobility | locomotor activity in the open field, in words (rats (NAcShell infusion)): does not affect locomotor activity | Climbing score, FLU (rats (NAc infusion); [3]): 39 ± 12 | Immobility score, FLU (rats (NAc infusion); [3]): 66 ± 30 | Swimming score, FLU (rats (NAc infusion); [3]): 15 ± 17 | Climbing score, FLU (rats (NAc infusion); [4]): 60 ± 15 | Immobility score, FLU (rats (NAc infusion); [4]): 45 ± 13 | Swimming score, FLU (rats (NAc infusion); [4]): 14 ± 8 | Climbing score, FLU (rats (NAc infusion); [5]): 52 ± 10 | Immobility score, FLU (rats (NAc infusion); [5]): 53 ± 12 | Swimming score, FLU (rats (NAc infusion); [5]): 14 ± 7 | Climbing score, FLU (rats (NAc infusion); [6]): 45 ± 12 | Immobility score, FLU (rats (NAc infusion); [6]): 68 ± 9 | Swimming score, FLU (rats (NAc infusion); [6]): 6 ± 3 | Climbing score, FLU (rats (NAc infusion); [7]): 74 ± 10 | Immobility score, FLU (rats (NAc infusion); [7]): 39 ± 10 | Swimming score, FLU (rats (NAc infusion); [7]): 7 ± 6 | Climbing score, FLU (rats (NAc infusion); [8]): 61 ± 9 | Immobility score, FLU (rats (NAc infusion); [8]): 51 ± 8 | Swimming score, FLU (rats (NAc infusion); [8]): 7 ± 3 | Climbing score, FLU (rats (NAc infusion); [9]): 44 ± 10 | Immobility score, FLU (rats (NAc infusion); [9]): 62 ± 11 | Swimming score, FLU (rats (NAc infusion); [9]): 14 ± 7 | Climbing score, FLU (rats (NAc infusion); [10]): 57 ± 9 | Immobility score, FLU (rats (NAc infusion); [10]): 53 ± 7 | Swimming score, FLU (rats (NAc infusion); [10]): 10 ± 4 | Climbing score, FLU (rats (NAc infusion); [11]): 57 ± 9 | Immobility score, FLU (rats (NAc infusion); [11]): 53 ± 7 | Swimming score, FLU (rats (NAc infusion); [11]): 10 ± 4 | immobility in the swim test, effect in words (rats (NAc infusion); bilateral infusion into NAcShell, dose-dependently): decreases immobility | swimming plus climbing scores (total escape efforts) ([2]; following chronic fluoxetine treatment, saline 42±11): 55±7 | basal ACh level in the NAcShell, effect in words ([2]; low dose subcutaneously, daily over 14 days, rats in the forced swimming test): normalizes the chronic elevation in basal ACh level
